In US20250002854A1, “METHODS OF GENERATING POPULATIONS OF TUMOUR-INFILTRATING T CELLS” (LYTIX BIOPHARMA AS, priority 2016, published 2025):
Square brackets hold non-standard residues; d marks the D form. Ends that are not written are not given here. Dip = N[C@H](C(=O)O)C(c1ccccc1)c1ccccc1

Columns and labels:
[1] = system: B16F1 cells; test: LysoTracker DND-26, flow cytometry and confocal microscopy; assay type: cell-based, murine; details: 27 μM, 60 minutes
Procedure: Flow cytometry: B16F1 cells were seeded in 6-well plates and allowed to adhere overnight. […] Untreated cells were used as a control. Cells were trypsinized and investigated on a FACS Calibur Flow cytometer, and the results were processed using FlowJo Software (Tree Star, Inc., Ashland, OR, USA). PI was utilized in some experiments to gate away cells with compromised plasma membrane.
Confocal microscopy: B16F1 cells were seeded in 8-well plates (Nunc) at 1×10^4 cells/well and allowed to adhere overnight. Next, cells were treated with 27 μM of LTX-401 for 60 minutes and labelled with LysoTracker DND-26 for 5 minutes and with Hoecsht33342 for nuclear staining. Cells were immediately investigated on a Zeiss Confocal microscope with a controlled temperature and atmosphere.

[2] = system: B16F1 cells; test: Release of HMGB1 (Western blot); assay type: cell-based, murine; details: 108 μM
Procedure: B16F1 cells were seeded at a density of 2×10^5 cells/well in 6-well plates in a complete medium, and allowed to adhere overnight. Cells were treated with 108 μM of LTX-401 (4×IC50^4h), and incubated at 37° C. (>95% humidity and 5% CO2) for different time points (10, 30, 60, 90 and 120 minutes). Serum-free RPMI 1640 was used as a negative control, and supernatants (S) were collected and centrifuged at 1,400 g for 5 min before being up-concentrated using Amicon Ultra-0.5 Centrifugal Filter units with Ultracel-50 membrane (Milipore, Norway). Cell lysates (L) were harvested after washing with 2 mL of serum-free RPMI-1640 and subjected to a lysis buffer (mastermix) containing 2×NuPAGE LDS Sample buffer (Invitrogen, Norway), a 1×NuPAGE Sample Reducing Agent (Invitrogen, Norway) and 50% sterile H20. Both supernatants and lysates were boiled at 70° C. for 10 min and resolved on NuPAGE Novex 4-12% Bis-Tris Gels (Millipore, Norway) before being electrotransferred to a polyvindiline difluoride (PVDF) membrane (Millipore, Norway). […]

[3] = system: Human osteosarcoma U2OS cells; test: Transmission electron microscopy of U2OS cells after LTX-315; assay type: cell-based
Procedure: Cytoplasmic membrane disintegration was carried out as described in FORVEILLE S. et al., Cell Cycle 2015, 14: 3506-12.
Human osteosarcoma U2OS cells were cultured in Glutamax-containing DMEM medium supplemented with 10% fetal calf serum (FCS), and […] HEPES buffer. Cells were grown at 37° C. in a humidified incubator under a 5% CO2 atmosphere.
For ultrastructural studies, human osteosarcoma U2OS cells were fixed in 1.6% glutaraldehyde (v/v in 0.1 M phosphate buffer) for 1 h, collected by scraping, centrifuged and the pellet was post-fixed 1% osmium tetroxide (w/v in 0.1 M phosphate buffer). Following dehydration through a graded ethanol series, cells were embedded in Epon™ 812 and ultrathin sections were stained with standard uranyl acetate and lead citrate. Images were taken using a Tecnai 12 electron microscope (FEI, Eindhoven, the Netherlands).

[4] = system: A375 cells; test: Fluorescence measurement of reactive oxygen species (DCFDA); assay type: cell-based, human; details: 15 minutes of incubation, different concentrations
Procedure: A DCFDA cellular reactive oxygen species detection assay kit was purchased from abcam®, and A375 cells seeded in a 96-well Costar black clear bottom plate with 20,000 cells per well incubated in 37° C. 16 hours prior to DCFDA assay. Cells were washed with a 100 μL/well of pre-warmed PBS one time, and incubated with 20 µM of DCFDA in a buffer solution supplied with the kit at 37° C. in a cell culture incubator for 45 min, and then washed again with a buffer solution of 100 μL/well. […] The fluorescence intensity was determined at an excitation wavelength of 485 nm and an emission wavelength of 530 nm on a FLUOstar Galaxy plate reader.

[5] = system: A375 cells; test: Confocal imaging with Mitotracker (mitochondrial membrane potential); assay type: cell-based, human; details: short time after peptide treatment; data not shown
Procedure: Fixed cells, mitotracker—Cells were seeded as for live cell imaging, and treated with Mitotracker CMH2XROS (Invitrogen) at […] for 15 minutes prior to peptide treatment. Cells were treated with 17 μM LTX-315, with negative control serum-free RPMI only. After 60 min of incubation, cells were analyzed using a Zeiss microscope.

[6] = system: MCA205 sarcomas; test: T-cell depletion, tumour growth of MCA205 sarcomas; assay type: in vivo, C57BL/6 mice; details: three intratumoural daily injections of 300 μg
Procedure: Mice were subcutaneously injected into the right flank with 1×10^6 MCA205 cells. Tumour cell lines were inoculated into C57BL/6 mice. Tumour surfaces (longest dimension×perpendicular dimension) were routinely monitored by caliper. When tumours reached a size of 20-25 mm^2 (day 0), mice were administered intratumourally with three consecutive daily injections of 300 μg LTX-315. In T-cell depletion experiments (FIG. 24), anti-CD4 and anti-CD8 monoclonal antibodies (mAbs) (GK1.5 and 53-6.72, respectively; 200 μg per mouse) or their isotype controls (LTF-2 and 2A3, respectively) were injected intraperitoneally 3 and 4 days before the first LTX-315 injection and continued every other 7 days. All mAbs for in vivo use were obtained from BioXcell (West Lebanon, NH, USA), using the recommended isotype control mAbs.

[7] = system: rat sarcoma model; test: Rat sarcoma model with three lesions, tumour growth by live imaging; assay type: in vivo; details: LTX-315 injected into one subcutaneous lesion

Compound | LysoTracker DND-26 signal [1] | time at which HMGB1 translocation was absolute [2] | time at which release of HMGB1 occurs [2] | cell morphology after administration (TEM) [3] | ROS generation [4] | Mitotracker mitochondrial signal [5] | antitumor effects in presence of antibodies depleting CD4+ and CD8+ T cells [6] | effect on lesions (intraperitoneal and two subcutaneous tumours) [7]
Cl.Cl.NCCNC(=O)C(CN)(CCCc1ccccc1)CCCc1ccccc1 [LTX-401] | induced a decreased signal | 90 min | 30 min | – | – | – | – | –
K-K-W-W-K-K-W-Dip-K-NH2 (KKWWKKW[Dip]K-NH2) [LTX-315] | – | – | – | necrotic morphology with disintegration of cytoplasmic membranes | Significant amounts of ROS were generated | loss of mitochondrial signal | completely abrogated the antitumor effects | eradicated all three lesions
